Reference: patent US20030166561A1, “Peptide” (priority 1999, published 2003)
Where no end group is shown, it is not given here.

Tests used:
βTC6-F7 cells = assay: Effect of preptin on glucose-stimulated insulin secretion from cultured βTC6-F7 cells; type: cell-based, murine; conditions: 10 mM glucose
Procedure: Insulin and amylin are known to modulate β-cell insulin secretion via presumed autocrine mechanisms. The effect of preptin on insulin secretion was therefore tested using a β-cell secretagogue protocol βTC6-F7 cells were subcultured at passage #52 into 24-well plates at 4×10^5 cells/well. They were grown for 3d in nDMEM to 80% confluence, then washed twice with KRB-HEPES. Stock preptin was serially diluted in incubation medium containing 10 mM D(+) glucose to yield final concentrations of 150, 75, 25, 5, 1 and 0.1 nM. Cells were then washed, and 1 ml/well of incubation medium containing 10 mM and-various final preptin concentrations was added to each well. Cells were incubated at 37° C. for 2 h, then medium removed. Cells were washed thrice with PBS, then lysed with 500 μl of lysis buffer. Incubation medium was centrifuged (16,000×g, 3 min) and the supernatant separated from pelleted debris. Incubation medium and lysates were then analyzed for insulin, preptin and protein as above.

[1] = system: isolated perfused rat pancreas; assay: Insulin secretion from glucose-stimulated isolated-perfused rat pancreas (infusion of preptin or anti-preptin γ-globulin); conditions: 75 nM preptin, 20 mM glucose; compared with control (0-added preptin); p=0.03
Procedure: Pancreases from fasted adult male Wistar rats (300±25 g) were isolated and prepared (Grodsky and Fanska 1975). Pancreases were perfused with KHB supplemented with 4% dextran, 0.5% BSA, 3 mM arginine and 5.5 mM glucose. Perfusate was gassed with 95% 02:5% CO2 and infused by peristaltic pump (2.7 ml.min^−1 without re-circulation). Pancreases were perfused and equilibrated for 20 min prior to each 70 min perfusion experiment. 10 min into the experiment either carrier buffer (0.1% BSA in 0.9% NaCl), preptin dissolved in carrier buffer, anti-preptin Ig or non-immunised rabbit Ig (both diluted in carrier buffer) were introduced via a side-arm infusion (final concentrations in perfusate: 75 nM preptin; 35 μg.ml^−1 Ig). In addition, at 25 min, glucose was infused for 20 min (final concentration in perfusate: 20 mM). […]
Pancreases were perfused with KHB supplemented with 4% dextran, 0.5% BSA, 3 mM-arginine and 5.5 mM glucose (final concentrations). […] 10-min into the experiment either anti-preptin γ-globulin or non-immune rabbit γ-globulin were introduced via a side-arm infusion (final γ-globulin concentration in perfusate: 35 μg.ml^−1 in carrier buffer (0.1% BSA in 0.9% NaCl). In addition, at 25-min, glucose was infused for 20-min (measured final concentration in perfusate: 20 mM). Continuous 1-min fractions were collected on ice and assayed for insulin (RIA).

“DVSTSQAVLPDDFPRYPVGKFFKFDTWRQSAGRL [synthetic rat preptin, 34 amino acid peptide, Asp69-Leu102 of rat proIGF-II E-peptide, chemically synthesized using Fmoc chemistry]” was tested, and the “preptin concentration at which effect on insulin secretion reached maximal” value (βTC6-F7 cells) was 75 nM, the “glucose-stimulated secretion of insulin” value (βTC6-F7 cells; 2 h, 37° C., compared to controls (0 added preptin)) was “enhanced” and the “preptin concentration at which significant effects on insulin secretion were detected” value (βTC6-F7 cells; compared to controls (0 added preptin)) was at least 0.1 nM. For the same sequence, the “enhancement of second phase of insulin secretion (areas-under-curve)” value [1] was 30%.
